What was measured:
[1] = tested on: A. donax explants; test: Phosphinothricin selection of explants with or without Agrobacterium tumefaciens cocultivation (Example 3); assay type: cell-based, Arundo donax L.; conditions: 10 mg/l
Protocol: Cross-sectional segment of immature A. donax inflorescence were prepared and cultivated as described in Example 2. The totipotent tissue was cocultivated with Agrobacterium tumefaciens carrying plasmid pMSF3022, which carried the bar gene for positive selection in plant cells. The gene confers resistance to the antibiotic/herbicide phosphinothricin.
Cocultivation was carried out in 6 ml. of liquid primary culture medium for four days in the dark at room temperature. Explants were then rinsed with liquid medium and placed on solid selective and non-selective control medium containing the antibiotic/herbicide phosphinothricine at 10 mg/l. All medium contained tidarcillin at 400 mg/l to eliminate residual A. tumefaciens. Controls includes explants incubated without A. tumefaciens. […] This can be contrasted with control explants (which were not contacted with A. tumefaciens) that were killed by 10 mg/l of phosphinothricin (FIG. 3A). Also shown are control explants that have developed callus in the absence of phosphinothricin (FIG. 3B), and cocultivated explants that have developed callus in the absence of phosphinothricin (FIG. 3D).

[2] = tested on: cloned A. donax plants (roots); test: Trichloroethene challenge of cloned plants in phytoreactor (Example 4); assay type: in vivo, Arundo donax L.; conditions: 0.25 mM in hydroponic solution; after a recovery period of 3 to 4 weeks
Protocol: Sustained titopotent cultures of A donax were grown as described in Example 2, and cloned plants derived from the titopotent tissues were established in a standard liquid hydroponic solution in plastic tubs (Shown in FIG. 4 A). In one phytoreactor tub, trichloroethene (trichloroethylene) was added to a concentration of 0.25 mM. This was believed to be a high concentration of the organic material, because the allowable EPA concentration is 0.005 mg/l.

Structure (SMILES) | effect on control explants (not contacted with A. tumefaciens) [1] | state of roots of challenged plants [2]
CP(=O)(O)CC[C@H](N)C(=O)O [phosphinothricin] | killed | –
ClC=C(Cl)Cl [trichloroethene] | – | fully recovered

Reference: patent publication US20020174455A1, “Sustained totipotent culture of selected monocot genera” (priority 2001, published 2002)
